Experiments:
[1] = tested on: AMBEL (Ragweed, Common); test: Preemergence herbicidal evaluation; assay type: in vivo, Ambrosia artemisifolia; details: rated 4-5 weeks after treatment; for AMBEL rating: preemergence, 0-9 scale
Summary of the method: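 Test compound, dissolved in aqueous acetone, was sprayed over planted soil cups at an equivalent of about 0.0156 to 0.500 kg/ha; seeds had been mixed with potting soil. Greenhouse growth followed, with visual 0-9 scoring of injury at four to five weeks.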

[2] = tested on: MOOVA (Monochoria); test: Postemergence weed control under flooded paddy conditions; assay type: in vivo, Monochoria vaginalis; details: postemergence weeds
Summary of the method: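 Injury ratings (0–9 scale covering stand, vigor, malformation, size, chlorosis and overall appearance versus control) were made three to four weeks after treatment. Test material, about 0.0313 to 0.500 kg/ha a.i. in 50/50 v/v aqueous/acetone, was added to flood water 1.5 to 3 cm deep over 3 to 5 cm weeds and 1.5 to 2.5 leaf rice.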

[3] = tested on: CYPIR (Rice Flatsedge); test: Preemergence weed control under flooded paddy conditions; assay type: in vivo, Cyperus iria; details: rated 3-4 weeks after treatment
Summary of the method: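 Ratings on a 0-9 visual scale cover stand, vigor, malformation, size, chlorosis and overall appearance relative to a control, taken three to four weeks post-treatment. Application was into flood water over freshly sown silt loam at roughly 0.0313 to 0.500 kg/ha.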

[4] = Rate 0.0625 kg/ha, rated 3 to 4 weeks after treatment
[5] = Rate 0.0313 kg/ha, rated 3 to 4 weeks after treatment
[6] = Rate 0.1250 kg/ha, rated 3 to 4 weeks after treatment
[7] = Rate 0.2500 kg/ha, rated 3 to 4 weeks after treatment

SMILES | Preemergence herbicidal rating AMBEL ([1]; rate 0.0156 kg/ha) | Preemergence herbicidal rating AMBEL ([1]; rate 0.0313 kg/ha) | Preemergence herbicidal rating AMBEL ([1]; rate 0.0625 kg/ha) | Preemergence herbicidal rating AMBEL ([1]; rate 0.1250 kg/ha) | Preemergence herbicidal rating AMBEL ([1]; rate 0.2500 kg/ha) | Preemergence herbicidal rating AMBEL ([1]; rate 0.5000 kg/ha) | Herbicidal rating MOOVA [2, 4] | CYPIR herbicidal effect rating ([3]; 0.0625 kg/ha) | CYPIR herbicidal effect rating ([3]; 0.1250 kg/ha) | CYPIR herbicidal effect rating ([3]; 0.2500 kg/ha) | Herbicidal rating MOOVA [2, 5] | Herbicidal rating MOOVA [2, 6] | Herbicidal rating MOOVA [2, 7] | CYPIR herbicidal effect rating ([3]; 0.0313 kg/ha) | AMBEL rating ([1]; 0.0156 kg/ha) | AMBEL rating ([1]; 0.0313 kg/ha) | AMBEL rating ([1]; 0.0625 kg/ha) | AMBEL rating ([1]; 0.1250 kg/ha) | AMBEL rating ([1]; 0.2500 kg/ha) | AMBEL rating ([1]; 0.5000 kg/ha) | further results
C#CCOC(=O)CC1SC(=Nc2cc(-n3c(=O)cc(C(F)(F)F)n(C)c3=O)c(F)cc2Cl)N(CC(=O)OCC)C1=O (stereo not shown) [Compound 59, 2-{{2-Chloro-5-[3,6-dihydro-3-methyl-2,6-dioxo-4-(trifluoromethyl)-1(2H)-pyrimidinyl]-4-fluorophenyl}imino}-4-oxo-3,5-thiazolidinediacetic acid, 3-ethyl (2-propynyl) ester] | 2.0 | 3.5 | 6.5 | 9.0 | 9.0 | 9.0 | 0.0 | 0.0 | 0.0 | 9.0 | – | – | – | – | – | – | – | – | – | – | Herbicidal rating MOOVA ([2]; rate 0.1250 kg/ha, 3-4 weeks after treatment): 0.0; Herbicidal rating MOOVA ([2]; rate 0.2500 kg/ha, 3-4 weeks after treatment): 9.0
CCOC(=O)CN1C(=O)C(CC(=O)OC(C)C)SC1=Nc1cc(-n2c(=O)cc(C(F)(F)F)n(C)c2=O)c(F)cc1Cl (stereo not shown) [Compound 60, 2-{{2-Chloro-5-[3,6-dihydro-3-methyl-2,6-dioxo-4-(trifluoromethyl)-1(2H)-pyrimidinyl]-4-fluoro-phenyl}imino}-4-oxo-3,5-thiazolidinediacetic acid, 3-ethyl isopropyl ester] | 0.0 | 0.0 | 2.0 | 7.0 | 7.0 | 9.0 | 9.0 | 3.0 | 6.0 | 6.0 | 9.0 | 9.0 | 9.0 | 3.0 | – | – | – | – | – | – | –
C=CCN1C(=O)C(CC(=O)O)SC1=Nc1cc(-n2c(=O)cc(C(F)(F)F)n(C)c2=O)c(F)cc1Cl (stereo not shown) [Compound 62, 3-Allyl-2-{{2-chloro-5-[3,6-dihydro-3-methyl-2,6-dioxo-4-(trifluoromethyl)-1(2H)-pyrimidinyl]-4-fluorophenyl}imino}-4-oxo-5-thiazolidineacetic acid] | 2.0 | 5.0 | 7.0 | 9.0 | 7.0 | – | 9.0 | 2.0 | 9.0 | 9.0 | 4.0 | 9.0 | 9.0 | 0.0 | – | – | – | – | – | – | –
C=CCN1C(=O)C(CC(=O)OC(C)C)SC1=Nc1cc(-n2c(=O)cc(C(F)(F)F)n(C)c2=O)c(F)cc1Cl (stereo not shown) [Compound 66, Isopropyl 3-allyl-2-{{2-chloro-5-[3,6-dihydro-3-methyl-2,6-dioxo-4-(trifluoromethyl)-1(2H)-pyrimidinyl]-4-fluorophenyl}imino}-4-oxo-5-thiazolidineacetate] | 0.5 | 1.0 | 3.0 | 9.0 | 9.0 | 9.0 | 9.0 | 6.0 | 7.0 | 7.0 | 9.0 | 9.0 | 9.0 | 6.0 | – | – | – | – | – | – | –
C=CCN1C(=O)C(CC(=O)NOC)SC1=Nc1cc(-n2c(=O)cc(C(F)(F)F)n(C)c2=O)c(F)cc1Cl (stereo not shown) [Compound 85] | – | – | – | – | – | – | 9.0 | 7.0 | 9.0 | 9.0 | 9.0 | 9.0 | 9.0 | 3.0 | 0.0 | 0.0 | 3.0 | 7.0 | 9.0 | 9.0 | –
CCOC(=O)CN1C(=O)C(CC(=O)OC(C)C(=O)OCC)S/C1=N/c1cc(-n2c(=O)cc(C(F)(F)F)n(C)c2=O)c(F)cc1Cl (stereo not shown) [Compound 87] | – | – | – | – | – | – | 9.0 | 5.0 | 5.0 | 5.0 | 9.0 | 9.0 | 9.0 | 5.0 | – | – | – | 0.0 | 0.0 | 9.0 | Herbicidal rating MOOVA ([2]; Rate 0.5000 kg/ha, rated 3 to 4 weeks after treatment): 9.0; CYPIR herbicidal effect rating ([3]; 0.5000 kg/ha): 7.0
COC(=O)CC1SC(=Nc2cc(-n3c(=O)cc(C(F)(F)F)n(C)c3=O)c(F)cc2Cl)N(C)C1=O (stereo not shown) [Compound 88, Methyl 2-{{2-chloro-5-[3,6-dihydro-3-methyl-2,6-dioxo-4-(trifluoromethyl)-1(2H)-pyrimidinyl]-4-fluorophenyl}imino}-3-methyl-4-oxo-5-thiazolidineacetate] | – | – | – | – | – | – | 9.0 | 0.0 | 0.0 | 0.0 | 9.0 | 9.0 | 9.0 | 0.0 | 0.0 | 0.0 | 7.0 | 9.0 | 9.0 | – | –
CN1C(=O)C(CC(N)=O)SC1=Nc1cc(-n2c(=O)cc(C(F)(F)F)n(C)c2=O)c(F)cc1Cl (stereo not shown) [Compound 92, 2-{{2-Chloro-5-[3,6-dihydro-3-methyl-2,6-dioxo-4-(trifluoromethyl)-1(2H)-pyrimidinyl]-4-fluorophenyl}imino}-3-methyl-4-oxo-5-thiazolidineacetamide] | – | – | – | – | – | – | 9.0 | 3.0 | 5.0 | 7.0 | 9.0 | 9.0 | 9.0 | 3.0 | 0.0 | 0.0 | 0.0 | 5.0 | 9.0 | – | –
C=CCN1C(=O)C(CC(=O)OC(C)C(=O)OCC)SC1=Nc1cc(-n2c(=O)ccn(C)c2=O)c(F)cc1Cl [Compound 94, 3-Allyl-2-{{2-chloro-5-[3,6-dihydro-3-methyl-2,6-dioxo-1(2H)-pyrimidinyl]-4-fluorophenyl}imino}-4-oxo-5-thiazolidineacetic acid, ester with ethyl lactate, (R,S)-] | – | – | – | – | – | – | 9.0 | 3.0 | 4.0 | 4.0 | 9.0 | 9.0 | 9.0 | 0.0 | 0.0 | 0.0 | 4.0 | 9.0 | 9.0 | – | –
CN1C(=O)C(CC(=O)NS(C)(=O)=O)SC1=Nc1cc(-n2c(=O)cc(C(F)(F)F)n(C)c2=O)c(F)cc1Cl (stereo not shown) [Compound 97, 2-{{2-Chloro-5-[3,6-dihydro-3-methyl-2,6-dioxo-4-(trifluoromethyl)-1(2H)-pyrimidinyl]-4-fluorophenyl}imino}-3-methyl-N-(methylsulfonyl)-4-oxo-5-thiazolidineacetamide] | – | – | – | – | – | – | 9.0 | 0.0 | 3.0 | 4.0 | 9.0 | 9.0 | 9.0 | 0.0 | – | – | – | 0.0 | 4.0 | 4.0 | –

From US20020137929A1, “1 - (3-heterocyclylphenyl) isothiourea, -isourea, -guanidine and -amidine herbicidal agents” (Intellectual Property Department, BASF Aktiengesellschaft, priority 1998, published 2002)
